In patent US9115064B2, “N-hydroxylsulfonamide derivatives as new physiologically useful nitroxyl donors” (The Johns Hopkins University, priority 2007, dated 2015):

Experiment: HNO production via N2O quantification (GC headspace analysis, Angeli's salt as benchmark)
Assay type: physicochemical
Settings: pH 7.4 in PBS buffer at 37° C.; for Nitrous oxide evolved as % of Angelis salt: relative to Angeli's salt

SMILES	% moles N2O/moles of sample	Nitrous oxide evolved as % of Angelis salt
CN(C)C(=O)c1ccc(Br)c(S(=O)(=O)NO)c1 [Compound 6, 4-Bromo-3-(hydroxysulfamoyl)-N,N-dimethylbenzamide]	81%	116%
O=C(OCCN1CCOCC1)c1ccc(Cl)c(S(=O)(=O)NO)c1 [Compound 9, -(Morpholin-4-yl)ethyl 4-chloro-3-(hydroxysulfamoyl)benzoate]	65%	93%
CN(C)C(=O)c1ccc(Cl)c(S(=O)(=O)NO)c1 [Compound 7, 4-Chloro-3-(hydroxysulfamoyl)-N,N-dimethylbenzamide]	85%	122%
O=C(O)c1ccc(Br)c(S(=O)(=O)NO)c1 [Compound 4, 4-Bromo-3-hydroxysulfamoyl-benzoic acid]	82%	117%
O=C(NCCN1CCOCC1)c1cc(Br)c(S(=O)(=O)NO)s1 [Compound 97, 4-Bromo-5-(hydroxysulfamoyl)-N-[2-(morpholin-4-yl)ethyl]thiophene-2-carboxamide]	92%	131%
COC(=O)c1ccccc1S(=O)(=O)NO [Compound 1, 2-Hydroxysulfamoyl-benzoic acid methyl ester]	30.5%	43%
O=C(c1ccc(Br)c(S(=O)(=O)NO)c1)N1CCOCC1 [Compound 5, -Bromo-N-hydroxy-5-(morpholine-4-carbonyl)-benzenesulfonamide]	80.5%	115%
O=S(=O)(NO)c1ccccc1S(=O)(=O)N1CCOCC1 [Compound 8, N-Hydroxy-2-(morpholin-4-ylsulfonyl)benzene sulfonamide]	86%	126%
O=C(O)c1ccc(Cl)c(S(=O)(=O)NO)c1 [Compound 3, 4-Chloro-3-hydroxysulfamoyl-benzoic acid]	81.5%	116%
O=C(c1cc(Br)c(S(=O)(=O)NO)s1)N1CCOCC1 [Compound 98, 3-Bromo-N-hydroxy-5-(morpholin-4-ylcarbonyl)thiophene-2-sulfonamide]	81%	116%
O=C(O)c1cccc(S(=O)(=O)NO)c1 [Compound 2, 3-Hydroxysulfamoyl-benzoic acid]	19%	27%
[Na+].[Na+].[O-][N+]([O-])=NO [Angeli's Salt, sodium dioxotrinitrate, reference compound]	70.5%	100%
